Measurements from patent publication US11040108B2, “Amino acid- and peptide-steroid conjugates and use thereof” (BRANDEIS UNIVERSITY, priority 2016, dated 2021).
pIC50: −log10 of the molar value. Like-named read-outs stand apart in the source and are kept apart here.

Tests used:
[1] = system: F-actin in HeLa cells; experiment: Actin staining (CLSM), HeLa; type: cell-based, human; settings: 1a 25 μM, 12 hours
Method: (§1) Cells in exponential growth phase were seeded in confocal dish (3.5 cm) at 1×10^5 to 2×10^5 cells per dish. After putting the dish in incubator for 24 hours, culture medium was removed, and fresh medium containing precursor (12.5 μM 1a for A2780cis, 25 μM 1a for HeLa) was added. After 12 hours, the medium was removed and PBS was used to wash the cells for three times. After fixing by 4% paraformaldehyde for 15 minutes, 1 mL of 0.1% Triton X-100 in PBS buffer was added for 30 minutes. After washing the cells three times by PBS, 1 mL of 0.1% BSA in PBS was added for 30 minutes, and then the cells were washed by PBS for three times. 1 mL of PBS containing 5 unit of Alexa 633 was added to the cells for 1 hour. After removing the buffer and washing the cells three times by PBS, 1 mL of Hoechst (1 μg/mL) was added for 10 minutes. Then, the cells were washed three times with PBS buffer before imaging.
Similar to the case of A2780cis, the change of the viability of the HeLa cells co-incubated with 1a and several specific inhibitors was examined to understand the mechanism of cell death. […] To verify the assemblies of 1b interact with F-actin, actin tracker was used to visualize F-actin filament in HeLa cells.

[2] = system: HeLa cells; experiment: MTT assay, cytotoxicity against HeLa; type: cell-based, human
Method: HeLa, Saos-2, HS-5, HepG2, T98G, and A2780 cells were purchased from American-type Culture Collection (ATCC, USA). A2780cis cell was purchased from Sigma. HeLa cells, HepG-2 cells, and T98G cells were cultured in MEM Medium supplemented with 10% v/v fetal bovine serum, 100 U/mL penicillin, and 100 μg/mL streptomycin. Saos-2 cells were cultured in McCoy's 5a Medium (for Saos-2) supplemented with 15% v/v fetal bovine serum, 100 U/mL penicillin, and 100 μg/mL streptomycin. HS-5 cells were cultured in Dulbecco's Modified Eagle's medium (DMEM) supplemented with 10% v fetal bovine serum (FBS), 100 U/mL penicillin, and 100 μg/mL streptomycin. A2780cis cells were cultured in RPMI 1640 Medium supplemented with 10% v/v fetal bovine serum, 100 U/mL penicillin, and 100 μg/mL streptomycin (cisplatin only necessary every 2-3 passages). All cells were maintained at 37° C. in a humidified atmosphere of 5% CO2.
(§2) An MTT assay was used to test the cytotoxicity. All different cell lines were seeded in 96-well plates at 1×10^5 cells/well for 24 hours followed by removal of the culture medium and subsequent addition of culture medium containing different concentrations of the precursors. At designated time (24/48/72 hours), 10 μL MTT solution (5 mg/mL) was added to each well and incubated at 37° C. for another 4 hours, and then 100 μL of SDS-HCl solution was added to stop the reduction reaction and dissolve the purple formazan. The absorbance of each well at 595 nm was measured by a multimode microplate reader. The cytotoxicity assay was performed three times and the average value of the three measurements was taken.
To confirm that assemblies of the cholesterol conjugate are able to inhibit other cancer cell lines, 1a was incubated with HeLa cells, a widely studied malignant cervical cancer cell line.

[3] = system: A2780 cell line; experiment: Cell viability of unstimulated or selected A2780 cell line (acquired resistance); type: cell-based; settings: after five weeks treatment with gradually increased concentrations; 24, 48, 72 h
Method: as §2
The activity of 1a against non-drug resistant cancer cells was assessed using the A2780 cell line.

[4] = system: cell death receptors (CD95, DR3, DR5, TNFR1, TNFR2) on A2780cis cells; experiment: Antibody staining of cell death receptors (CLSM); type: cell-based, human; settings: 1a 12.5 μM, 12 or 24 hours
Method: Procedure recommended by ABCAM for antibody staining was used. Cells were seeded (100,000-200,000 cell/3.5 cm confocal dish) and attachment was allowed (24 hours). Cells were incubated with 12.5 μM of precursor 1a for 12 hours or 24 hours. Then the cells were washed with PBS buffer three times and fixed by 4% formaldehyde for 15 minutes. Fixed cells were then washed with PBS buffer three times and incubated in 1.0% BSA/10% normal goat serum/0.3M glycine in 0.1% PBS-Tween for 1 hour to permeabilize the cells and block non-specific protein-protein interactions. Then they were washed with PBS buffer three times and incubated with the primary antibody (diluted 1/100, overnight at 4° C.). Then they were washed with PBS buffer three times and exposed to the secondary antibody (ab150077 Alexa Fluor® 488 goat anti-rabbit IgG (H+L), green) at 2 μg/ml (diluted 1/1000) for 1 hour. Hoechst 33342 was used to stain the cell nuclei (blue). The sample was washed with PBS buffer three times and mounted for imaging.
Antibody staining was used to examine the extrinsic cell death signaling molecules induced by the assemblies of 1b. […]

[5] = system: F-actin in A2780cis cells; experiment: Actin staining (CLSM), A2780cis; type: cell-based, human; settings: 1a 12.5 μM, 12 hours
Method: as §1, with “imaging. […]” for “imaging.”

[6] = system: lipid rafts in A2780cis cells; experiment: Laurdan staining of lipid rafts, A2780cis; type: cell-based, human; settings: 1a 12.5 μM, 12 hours, 10 μM laurdan
Description: Considering that cholesterol is the basic component of lipid rafts, dynamic assemblies in cell membrane (Simons et al., “Functional Rafts in Cell Membranes,” Nature 387:569 (1997), which is hereby incorporated by reference in its entirety), laurdan, a commonly used probe for the polarity membrane (Parasassi et al., “Quantitation of Lipid Phases in Phospholipid Vesicles by the Generalized Polarization of Laurdan Fluorescence,” Biophys. J. 60:179 (1991), which is hereby incorporated by reference in its entirety), was used to examine the changes of lipid rafts upon the EISA of […]. Without treatment of 1a, the fluorescence of laurdan dispersed relatively evenly in the whole cell membrane (FIG. 8C).

[7] = system: lipid rafts in HeLa cell; experiment: Laurdan staining of lipid rafts, HeLa; type: cell-based, human; settings: 1a 25 μM, 12 hours

## CC(C)CCC[C@@H](C)C1CC[C@H]2[C@@H]3CC=C4CC(OC(=O)NC(Cc5ccc(OP(=O)(O)O)cc5)C(=O)O)CC[C@]4(C)[C@H]3CC[C@]12C (stereo partly drawn) [1a, Cholesterol-(phospho)D-Tyr]
[1]
  F-actin filaments: considerably decreased actin filaments
[2]; 1a 12.5 μM + ALP, L-Phe, levamisole, zVAD-fmk, PJ34 or Nec-1, 48 hours
  viability of HeLa cell treated by 1a with phosphatase or cell death signaling inhibitors: significantly increased the viability
[2]; 48 hours, read-out: IC50 against HeLa cell
  pIC50: 4.72
[2]; Homo sapiens, HeLa, 48 h, read-out: IC50 against HeLa cell
  pIC50: 4.73
[2]; Homo sapiens, HeLa, 72 h, read-out: IC50 against HeLa
  pIC50: 4.80
[2]; treated by 1a, 24 hours
  viability of HeLa cells: most HeLa cells were viable
[3]
  inhibition of A2780 and acquired drug resistance: able to inhibit ovarian cancer cells without acquired drug resistance
[4]
  clustering of DR3 or TNF-R1: rather moderate
  clustering of DR5: significant clustering
[5]
  F-actin filaments: short, ill-defined actin filament
[6]
  laurdan fluorescence in cell membrane (lipid rafts): increased inhomogeneity of the fluorescence
[7]
  number of green fluorescent puncta in cell membrane (laurdan, lipid rafts): increased considerably
